Data reported in patent US11142718B2, “Ecofriendly and biodegradable lubricant formulation and process for preparation thereof” (Council of Scientific & Industrial Research, priority 2017, dated 2021).
Where two headings read alike, the source gives them in different places.

How the values were obtained:
Assay type in all cases: physicochemical
[1] = Kinematic viscosity (IS: 1448: P-25); conditions: for viscosity at 40° C.: in cSt; for KV in cst at 40° C.: P-25
Description: (§1) In an embodiment of the present invention the polyol complex ester base oils may be selected from the viscosity range of 34.26 to 43.54 cSt at 40° C. as per IS: 1448: P-25 matching the specification and a high viscosity index of 161-171 as per P-56.
(§2) The synthesized products have the following characteristics: • a. The prepared esters have viscosity grade of 31.0 to 47.0 cSt at 40° C. as per P-25 matching the specification and a high viscosity index of 161-171 as per P-56. • b. […] The biodegradability of the synthesized ester is above 95% as per the standard ASTM D: 5864 test method for biodegradability. • e. The products are non toxic to the sewage bacteria. • f. The conventional additives which are suitable for mineral oils are also giving positive response with this ester. • g. The products have good anti wear properties with wear scar diameter of 0.350 mm at 40 kgf load as per ASTM D: 4172B. • h. The products have excellent load bearing capacity. • i. The products have good lubricity. • j. The products have good oxidative stability. • k. The products have no evaporation loss. • l. The products have good adherence to metal characteristics. • m. The products have good corrosion inhibiting characteristics. • n. […] Synthetic biodegradable polyol complex ester lubricating oils have excellent biodegradability, a high viscosity index and a low pour point, a high flash point, very good lubricity, good oxidative stability and property of preventing corrosion and suitable for use with sealing materials. • p.

[2] = Pour point (IS: 1448: P-10)
Description: as §2

[3] = Viscosity index (P-56)
Description: as §1, §2

[4] = Kinematic viscosity (IS: 1448: P-25); conditions: for viscosity at 100° C. / viscosity at 0° C.: in cSt
[5] = Adherence to metal (drop diameter change, contact angle); conditions: polished mild steel substrates
[6] = Evaporation loss (P-136)
[7] = Acidity (P-2)
[8] = Density (ASTM D: 4052)

CCCCC(CC)COC(=O)CCCCC(=O)OCC(CC)(CC)COC(=O)CCCCC(=O)OCC(CC)CCCC (centres unmarked) [DEADEH, 2,2-diethyl 1,3-propane di adipic 2 ethyl 1 hexanoate]
viscosity at 40° C. [1]: 91.3 | pour point [2]: > −24 °C | viscosity index [3]: 138 | viscosity at 100° C. [4]: 12.83

CCCCC(CC)COC(=O)CCCCCCCC(=O)OCC(CC)(CC)COC(=O)CCCCCCCC(=O)OCC(CC)CCCC (centres unmarked) [DEAZEH, 2,2-diethyl 1,3-propane diazelaic 2 ethyl 1 hexanoate]
KV in cst at 40° C. [1]: 47.00 cst | viscosity at 40° C. [1]: 47.0 | Adherence to metal, change in diameter of the drop, percent [5]: 13% | Evaporation loss, % by mass [6]: 0.42 % by mass | pour point [2]: > −39 °C | pour point ([2]; P-10): <−39 °C | viscosity index [3]: 171 | viscosity index ([3]; P-56): 171 | Acidity, Inorganic [7]: Nil | Acidity, Organic [7]: 0.0635 mg KoH/gm of oil | KV in cst at 0° C. [4]: 408.23 cst | viscosity at 0° C. [4]: 408.23 | KV in cst at −35° C. [4]: >5000 cst | Density, d4^20 [8]: 0.9627 gm/ml

CCCCC(CC)COC(=O)CCCCCCCCC(=O)OCC(CC)(CC)COC(=O)CCCCCCCCC(=O)OCC(CC)CCCC (centres unmarked) [DESEH, 2,2-diethyl 1,3-propane disebacic 2 ethyl 1 hexanoate]
viscosity at 40° C. [1]: 36.8 | pour point [2]: > −39 °C | viscosity index [3]: 165 | viscosity at 100° C. [4]: 7.24

CCCCC(CC)COC(=O)CCCCC(=O)OCC(C)(C)COC(=O)CCCCC(=O)OCC(CC)CCCC (centres unmarked) [DMADEH, 2,2-dimethyl 1,3-propane di adipic 2 ethyl 1 hexanoate]
KV in cst at 40° C. [1]: 31.00 cst | viscosity at 40° C. [1]: 31.00 | Adherence to metal, change in diameter of the drop, percent [5]: 12% | Evaporation loss, % by mass [6]: 0.48 % by mass | pour point [2]: > −39 °C | pour point ([2]; P-10): <−39 °C | viscosity index [3]: 161 | viscosity index ([3]; P-56): 161 | Acidity, Inorganic [7]: Nil | Acidity, Organic [7]: 0.0817 mg KoH/gm of oil | KV in cst at 0° C. [4]: 323.98 cst | viscosity at 0° C. [4]: 323.98 | KV in cst at −35° C. [4]: >4000 cst | Density, d4^20 [8]: 0.9915 gm/ml

CCCCC(CC)COC(=O)CCCCCCCC(=O)OCC(C)(C)COC(=O)CCCCCCCC(=O)OCC(CC)CCCC (centres unmarked) [DMAZEH, 2,2-dimethyl 1,3-propane diazelaic 2 ethyl 1 hexanoate]
viscosity at 40° C. [1]: 25.44 | pour point [2]: > −27 °C | viscosity index [3]: 169 | viscosity at 100° C. [4]: 5.60

CCCCC(CC)COC(=O)CCCCCCCCC(=O)OCC(C)(C)COC(=O)CCCCCCCCC(=O)OCC(CC)CCCC (centres unmarked) [DMSEH, 2,2-dimethyl 1,3-propane disebacid 2 ethyl 1 hexanoate]
viscosity at 40° C. [1]: 90.33 | pour point [2]: > −24 °C | viscosity index [3]: 172 | viscosity at 100° C. [4]: 14.8

CCCCC(CC)COC(=O)CCCCC(=O)OCC(CC)(COC(=O)CCCCC(=O)OCC(CC)CCCC)COC(=O)CCCCC(=O)OCC(CC)CCCC (centres unmarked) [THADEH, 1,1,1-trishydroxymethyl propane triadipic 2 ethyl 1 hexanoate]
viscosity at 40° C. [1]: 26.51 | pour point [2]: > −15 °C | viscosity index [3]: 196 | viscosity at 100° C. [4]: 10.17

CCCCC(CC)COC(=O)CCCCCCCC(=O)OCC(CC)(COC(=O)CCCCCCCC(=O)OCC(CC)CCCC)COC(=O)CCCCCCCC(=O)OCC(CC)CCCC (centres unmarked) [THAZEH, 1,1,1-trishydroxymethyl propane triazilaic 2 ethyl 1 hexanoate]
viscosity at 40° C. [1]: 46.07 | pour point [2]: > −27 °C | viscosity index [3]: 165 | viscosity at 100° C. [4]: 8.53

CCCCC(CC)COC(=O)CCCCCCCCC(=O)OCC(CC)(COC(=O)CCCCCCCCC(=O)OCC(CC)CCCC)COC(=O)CCCCCCCCC(=O)OCC(CC)CCCC (centres unmarked) [THSEH, 1,1,1-trishydroxymethyl propane trisebacic 2 ethyl 1 hexanoate]
viscosity at 40° C. [1]: 111 | pour point [2]: > −24 °C | viscosity index [3]: 196 | viscosity at 100° C. [4]: 16.87
